Laboratory results: patent US20100298141A1, “SUBSTITUTED PYRIDINE N-OXIDE HERBICIDES” (E. I. DU PONT DE NEMOURS AND COMPANY, priority 2007, published 2010)

Columns and labels:
duck salad = assay: Test B flooded paddy test; assay type: in vivo, Heteranthera limosa; conditions: Flood, 250 g ai/ha, 13 to 15 days; scale 0 to 100, 0 no effect, 100 complete control
Source text: (§1) At time of treatment, test pots were flooded to 3 cm above the soil surface, treated by application of test compounds directly to the paddy water, and then maintained at that water depth for the duration of the test. Treated plants and controls were maintained in a greenhouse for 13 to 15 days, after which time all species were compared to controls and visually evaluated. […] A dash (-) response means no test result.

rice = assay: Test B flooded paddy test; assay type: in vivo, Oryza sativa; conditions: Flood, 250 g ai/ha, 13 to 15 days; scale 0 to 100, 0 no effect, 100 complete control
Source text: as §1

umbrella sedge = assay: Test B flooded paddy test; assay type: in vivo, Cyperus difformis; conditions: Flood, 250 g ai/ha, 13 to 15 days; scale 0 to 100, 0 no effect, 100 complete control
Source text: as §1

annual bluegrass = assay: Test D preemergence test; assay type: in vivo, Poa annua; conditions: scale 0 to 100
Source text: (§2) Seeds of plant species selected from annual bluegrass (Poa annua), blackgrass (Alopecurus myosuroides), downy bromegrass (Bromus tectorum), field violet (Viola arvensis), green foxtail (Setaria viridis), Italian ryegrass (Lolium multiflorum), littleseed canarygrass (Phalaris minor), spring wheat (Triticum aestivum), wild oat (Avena fatua), […]), winter barley (Hordeum vulgare), and winter wheat (Triticum aestivum) were planted and treated preemergence with test chemicals formulated in a non-phytotoxic solvent mixture which included a surfactant. […] A dash (-) response means no test result.

blackgrass = assay: Test D preemergence test; assay type: in vivo, Alopecurus myosuroides; conditions: scale 0 to 100
Source text: as §2

field violet = assay: Test D preemergence test; assay type: in vivo, Viola arvensis; conditions: scale 0 to 100
Source text: as §2

Italian ryegrass = assay: Test D preemergence test; assay type: in vivo, Lolium multiflorum; conditions: scale 0 to 100
Source text: as §2

littleseed canarygrass = assay: Test D preemergence test; assay type: in vivo, Phalaris minor; conditions: scale 0 to 100
Source text: as §2

spring wheat = assay: Test D preemergence test; assay type: in vivo, Triticum aestivum; conditions: scale 0 to 100
Source text: as §2

windgrass = assay: Test D preemergence test; assay type: in vivo, Apera spica-venti; conditions: scale 0 to 100
Source text: as §2

broadleaf signalgrass = assay: Test G preemergence test; assay type: in vivo, Brachiaria platyphylla; conditions: scale 0 to 100
corn = assay: Test G preemergence test; assay type: in vivo, Zea mays; conditions: scale 0 to 100
cotton = assay: Test G preemergence test; assay type: in vivo, Gossypium hirsutum; conditions: scale 0 to 100
eastern black nightshade = assay: Test G preemergence test; assay type: in vivo, Solanum ptycanthum; conditions: scale 0 to 100
fall panicum = assay: Test G preemergence test; assay type: in vivo, Panicum dichotomiflorum; conditions: scale 0 to 100
field sandbur = assay: Test G preemergence test; assay type: in vivo, Cenchrus incertus; conditions: scale 0 to 100
giant foxtail = assay: Test G preemergence test; assay type: in vivo, Setaria faberii; conditions: scale 0 to 100
goosegrass = assay: Test G preemergence test; assay type: in vivo, Eleusine indica; conditions: scale 0 to 100
lambsquarters = assay: Test G preemergence test; assay type: in vivo, Chenopodium album; conditions: scale 0 to 100
millet foxtail = assay: Test G preemergence test; assay type: in vivo, Setaria italica; conditions: scale 0 to 100
sorghum = assay: Test G preemergence test; assay type: in vivo, Sorghum vulgare; conditions: scale 0 to 100
soybean = assay: Test G preemergence test; assay type: in vivo, Glycine max; conditions: scale 0 to 100
tall waterhemp = assay: Test G preemergence test; assay type: in vivo, Amaranthus tuberculatos; conditions: scale 0 to 100
yellow foxtail = assay: Test G preemergence test; assay type: in vivo, Pennisetum glaucum; conditions: scale 0 to 100
woolly cupgrass = assay: Test G preemergence test; assay type: in vivo, Eriochloa villosa; conditions: scale 0 to 100

Structure (SMILES): Cc1cc[n+]([O-])c(S(=O)(=O)Cc2c(C(F)(F)F)nn(C)c2OC(F)F)c1 [Compound 2]
- Plant response rating, Ducksalad (duck salad): 100
- Plant response rating, Rice, Transplanted (rice): 80
- Plant response rating, Umbrella Sedge (umbrella sedge): 100
- Plant response rating, Bluegrass (annual bluegrass; 31 g ai/ha): 20
- Plant response rating, Bluegrass (annual bluegrass; 62 g ai/ha): 40
- Plant response rating, Bluegrass (annual bluegrass; 125 g ai/ha): 100
- Plant response rating, Bluegrass (annual bluegrass; 250 g ai/ha): 100
- Plant response rating, Blackgrass (blackgrass; 31 g ai/ha): 0
- Plant response rating, Blackgrass (blackgrass; 62 g ai/ha): 70
- Plant response rating, Blackgrass (blackgrass; 125 g ai/ha): 100
- Plant response rating, Blackgrass (blackgrass; 250 g ai/ha): 100
- Plant response rating, Field Violet (field violet; 31 g ai/ha): 0
- Plant response rating, Field Violet (field violet; 62 g ai/ha): 0
- Plant response rating, Field Violet (field violet; 125 g ai/ha): 95
- Plant response rating, Field Violet (field violet; 250 g ai/ha): 100
- Plant response rating, Ryegrass, Italian (Italian ryegrass; 31 g ai/ha): 0
- Plant response rating, Ryegrass, Italian (Italian ryegrass; 62 g ai/ha): 0
- Plant response rating, Ryegrass, Italian (Italian ryegrass; 125 g ai/ha): 30
- Plant response rating, Ryegrass, Italian (Italian ryegrass; 250 g ai/ha): 50
- Plant response rating, Canarygrass (littleseed canarygrass; 31 g ai/ha): 0
- Plant response rating, Canarygrass (littleseed canarygrass; 62 g ai/ha): 60
- Plant response rating, Canarygrass (littleseed canarygrass; 125 g ai/ha): 100
- Plant response rating, Canarygrass (littleseed canarygrass; 250 g ai/ha): 100
- Plant response rating, Wheat, Spring (spring wheat; 31 g ai/ha): 0
- Plant response rating, Wheat, Spring (spring wheat; 62 g ai/ha): 0
- Plant response rating, Wheat, Spring (spring wheat; 125 g ai/ha): 0
- Plant response rating, Wheat, Spring (spring wheat; 250 g ai/ha): 15
- Plant response rating, Windgrass (windgrass; 31 g ai/ha): 100
- Plant response rating, Windgrass (windgrass; 62 g ai/ha): 100
- Plant response rating, Windgrass (windgrass; 125 g ai/ha): 100
- Plant response rating, Windgrass (windgrass; 250 g ai/ha): 100
- Plant response rating, Signalgrass (broadleaf signalgrass; 31 g ai/ha): 0
- Plant response rating, Signalgrass (broadleaf signalgrass; 62 g ai/ha): 50
- Plant response rating, Signalgrass (broadleaf signalgrass; 125 g ai/ha): 65
- Plant response rating, Signalgrass (broadleaf signalgrass; 250 g ai/ha): 65
- Plant response rating, Corn (corn; 31 g ai/ha): 0
- Plant response rating, Corn (corn; 62 g ai/ha): 0
- Plant response rating, Corn (corn; 125 g ai/ha): 0
- Plant response rating, Corn (corn; 250 g ai/ha): 10
- Plant response rating, Cotton (cotton; 31 g ai/ha): 0
- Plant response rating, Cotton (cotton; 62 g ai/ha): 0
- Plant response rating, Cotton (cotton; 125 g ai/ha): 0
- Plant response rating, Cotton (cotton; 250 g ai/ha): 0
- Plant response rating, Nightshade (eastern black nightshade; 31 g ai/ha): 0
- Plant response rating, Nightshade (eastern black nightshade; 62 g ai/ha): 40
- Plant response rating, Nightshade (eastern black nightshade; 125 g ai/ha): 40
- Plant response rating, Nightshade (eastern black nightshade; 250 g ai/ha): 45
- Plant response rating, Fall Panicum (fall panicum; 31 g ai/ha): 25
- Plant response rating, Fall Panicum (fall panicum; 62 g ai/ha): 65
- Plant response rating, Fall Panicum (fall panicum; 125 g ai/ha): 100
- Plant response rating, Fall Panicum (fall panicum; 250 g ai/ha): 100
- Plant response rating, Sandbur (field sandbur; 31 g ai/ha): 0
- Plant response rating, Sandbur (field sandbur; 62 g ai/ha): 0
- Plant response rating, Sandbur (field sandbur; 125 g ai/ha): 85
- Plant response rating, Sandbur (field sandbur; 250 g ai/ha): 100
- Plant response rating, Foxtail, Giant (giant foxtail; 31 g ai/ha): 0
- Plant response rating, Foxtail, Giant (giant foxtail; 62 g ai/ha): 35
- Plant response rating, Foxtail, Giant (giant foxtail; 125 g ai/ha): 100
- Plant response rating, Foxtail, Giant (giant foxtail; 250 g ai/ha): 100
- Plant response rating, Goosegrass (goosegrass; 31 g ai/ha): 95
- Plant response rating, Goosegrass (goosegrass; 62 g ai/ha): 100
- Plant response rating, Goosegrass (goosegrass; 125 g ai/ha): 100
- Plant response rating, Goosegrass (goosegrass; 250 g ai/ha): 100
- Plant response rating, Lambsquarters (lambsquarters; 31 g ai/ha): 0
- Plant response rating, Lambsquarters (lambsquarters; 62 g ai/ha): 0
- Plant response rating, Lambsquarters (lambsquarters; 125 g ai/ha): 10
- Plant response rating, Lambsquarters (lambsquarters; 250 g ai/ha): 15
- Plant response rating, Foxtail, Millet (millet foxtail; 31 g ai/ha): 0
- Plant response rating, Foxtail, Millet (millet foxtail; 62 g ai/ha): 100
- Plant response rating, Foxtail, Millet (millet foxtail; 125 g ai/ha): 100
- Plant response rating, Foxtail, Millet (millet foxtail; 250 g ai/ha): 100
- Plant response rating, Sorghum (sorghum; 31 g ai/ha): 0
- Plant response rating, Sorghum (sorghum; 62 g ai/ha): 0
- Plant response rating, Sorghum (sorghum; 125 g ai/ha): 60
- Plant response rating, Sorghum (sorghum; 250 g ai/ha): 100
- Plant response rating, Soybean (soybean; 31 g ai/ha): 0
- Plant response rating, Soybean (soybean; 62 g ai/ha): 0
- Plant response rating, Soybean (soybean; 125 g ai/ha): 0
- Plant response rating, Soybean (soybean; 250 g ai/ha): 0
- Plant response rating, Waterhemp (tall waterhemp; 31 g ai/ha): 20
- Plant response rating, Waterhemp (tall waterhemp; 62 g ai/ha): 100
- Plant response rating, Waterhemp (tall waterhemp; 125 g ai/ha): 100
- Plant response rating, Waterhemp (tall waterhemp; 250 g ai/ha): 100
- Plant response rating, Foxtail, Yellow (yellow foxtail; 31 g ai/ha): 0
- Plant response rating, Foxtail, Yellow (yellow foxtail; 62 g ai/ha): 20
- Plant response rating, Foxtail, Yellow (yellow foxtail; 125 g ai/ha): 100
- Plant response rating, Foxtail, Yellow (yellow foxtail; 250 g ai/ha): 100
- Plant response rating, Cupgrass, Woolly (woolly cupgrass; 31 g ai/ha): 0
- Plant response rating, Cupgrass, Woolly (woolly cupgrass; 62 g ai/ha): 0
- Plant response rating, Cupgrass, Woolly (woolly cupgrass; 125 g ai/ha): 95
- Plant response rating, Cupgrass, Woolly (woolly cupgrass; 250 g ai/ha): 95
